In patent US10717716B2, “1,3,4-oxadiazole derivative compounds as histone deacetylase 6 inhibitor, and the pharmaceutical composition comprising the same” (Chong Kun Dang Pharmaceutical Corp., priority 2015, dated 2020):

Target: T1, human recombinant HDAC6 (Homo sapiens, UniProt Q9UBN7)
T1 construct: purchased Calbiochem 382180
T1 sequence (Q9UBN7 1-1215): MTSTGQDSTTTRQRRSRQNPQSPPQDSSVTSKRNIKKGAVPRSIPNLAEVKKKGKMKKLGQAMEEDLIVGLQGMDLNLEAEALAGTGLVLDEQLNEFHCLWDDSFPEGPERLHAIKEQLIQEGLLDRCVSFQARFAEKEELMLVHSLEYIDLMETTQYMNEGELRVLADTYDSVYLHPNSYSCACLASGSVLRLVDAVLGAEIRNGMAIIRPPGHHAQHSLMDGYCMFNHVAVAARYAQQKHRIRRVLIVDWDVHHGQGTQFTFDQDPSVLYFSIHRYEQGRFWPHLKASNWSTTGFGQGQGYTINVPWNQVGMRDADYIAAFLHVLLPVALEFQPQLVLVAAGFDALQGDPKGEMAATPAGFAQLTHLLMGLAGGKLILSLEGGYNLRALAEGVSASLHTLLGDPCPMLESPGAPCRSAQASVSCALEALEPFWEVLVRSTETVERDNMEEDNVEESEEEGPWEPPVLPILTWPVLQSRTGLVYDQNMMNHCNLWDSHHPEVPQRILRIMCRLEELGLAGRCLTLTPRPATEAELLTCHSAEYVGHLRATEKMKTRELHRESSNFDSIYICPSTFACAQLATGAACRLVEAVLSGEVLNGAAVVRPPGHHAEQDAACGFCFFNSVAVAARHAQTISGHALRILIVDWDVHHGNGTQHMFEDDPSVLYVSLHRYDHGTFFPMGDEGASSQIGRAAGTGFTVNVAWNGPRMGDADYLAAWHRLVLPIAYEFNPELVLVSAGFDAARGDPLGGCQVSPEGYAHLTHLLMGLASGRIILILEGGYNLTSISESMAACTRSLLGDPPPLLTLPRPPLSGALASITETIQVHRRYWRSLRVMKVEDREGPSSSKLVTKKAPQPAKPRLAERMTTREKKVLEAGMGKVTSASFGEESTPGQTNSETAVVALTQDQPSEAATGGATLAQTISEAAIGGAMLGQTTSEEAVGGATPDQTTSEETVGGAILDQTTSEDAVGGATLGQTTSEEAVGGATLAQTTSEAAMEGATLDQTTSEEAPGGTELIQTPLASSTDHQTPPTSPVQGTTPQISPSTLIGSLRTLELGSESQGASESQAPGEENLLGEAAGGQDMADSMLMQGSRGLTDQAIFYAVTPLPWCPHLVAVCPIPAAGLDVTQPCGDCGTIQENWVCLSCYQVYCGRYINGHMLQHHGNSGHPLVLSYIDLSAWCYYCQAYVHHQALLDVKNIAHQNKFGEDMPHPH
Test: HDAC6 enzyme activity inhibition assay (HDAC Fluorimetric Drug Discovery Kit)
Type: biochemical
Conditions: for HDAC6 selectivity (fold): HDAC6 over HDAC1; for IC50: human recombinant HDAC6, same protocol as HDAC1, read-out: HDAC6
Method in brief: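 Fluorimetric deacetylase assay: 5-fold serial compound dilutions, 0.3 μg recombinant human enzyme (HDAC1 or HDAC6, same protocol), 10 μM Fluor de Lys-SIRT1 substrate, 60 min at 30 °C. Signal developed 30 min, measured at 360/460 nm; IC50 values derived.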

Row | HDAC6 selectivity (fold) | IC50 [nM] | SMILES
1 | 46 | 219 | O=C(NCCN1CCN(CCc2ccccc2)CC1)N(Cc1ccc(-c2nnc(C(F)F)o2)cc1F)c1ccccc1 [Compound 22014, 1-(4-(5-(Difluoromethyl)-1,3,4-oxadiazol-2-yl)-2-fluorobenzyl)-3-(2-(4-phenethylpiperazin-1-yl)ethyl)-1-phenylurea]
2 | 133 | 75 | C[C@@H]1CN(CCNC(=O)N(Cc2ccc(-c3nnc(C(F)F)o3)cc2F)c2ccccc2)C[C@H](C)N1 [Compound 21992, 1-(4-(5-(Difluoromethyl)-1,3,4-oxadiazol-2-yl)-2-fluorobenzyl)-3-(2-((3S,5R)-3,5-dimethylpiperazin-1-yl)ethyl)-1-phenylurea]
3 | 100 | 100 | O=C(NCCN1CCC(F)CC1)N(Cc1ccc(-c2nnc(C(F)F)o2)cc1F)c1ccccc1 [Compound 21990, 1-(4-(5-(Difluoromethyl)-1,3,4-oxadiazol-2-yl)-2-fluorobenzyl)-3-(2-(4-fluoropiperidin-1-yl)ethyl)-1-phenylurea]
4 | 10 | 1030 | Cc1nnc(N(Cc2ccc(-c3nnc(C(F)F)o3)cc2F)C(=O)N2CCOCC2)s1 [Compound 21980, N-(4-(5-(difluoromethyl)-1,3,4-oxadiazol-2-yl)-2-fluorobenzyl)-N-(5-methyl-1,3,4-thiadiazol-2-yl)morpholine-4-carboxamide]
5 | 476 | 21 | Cc1cccc(N(Cc2ccc(-c3nnc(C(F)F)o3)cc2F)C(=O)N2CCS(=O)(=O)CC2)c1 [Compound 21484, N-(4-(5-(difluoromethyl)-1,3,4-oxadiazol-2-yl)-2-fluorobenzyl)-N-(m-tolyl)thiomorpholine-4-carboxamide 1,1-dioxide]
6 | 294 | 34 | COc1ccc(N(Cc2ccc(-c3nnc(C(F)F)o3)cn2)C(=O)N2CCS(=O)(=O)CC2)cc1 [Compound 21455, N-((5-(5-(difluoromethyl)-1,3,4-oxadiazol-2-yl)pyridin-2-yl)methyl)-N-(4-methoxyphenyl)thiomorpholine-4-carboxamide 1,1-dioxide]
7 | 33 | 299 | Cc1ccc(N(Cc2ccc(-c3nnc(C(F)(F)F)o3)cc2)C(=O)N2CCOCC2)c(F)c1 [Compound 21415, N-(2-fluoro-4-methylphenyl)-N-(4-(5-(trifluoromethyl)-1,3,4-oxadiazol-2-yl)benzyl)morpholine-4-carboxamide]
8 | 323 | 31 | Cc1cccc(N(Cc2ccc(-c3nnc(C(F)F)o3)cn2)C(=O)N2CCN(C)CC2)c1 [Compound 21597, N-((5-(5-(difluoromethyl)-1,3,4-oxadiazol-2-yl)pyridin-2-yl)methyl)-4-methyl-N-(m-tolyl)piperazine-1-carboxamide]
9 | 58 | 173 | Cc1ccccc1N(Cc1ccc(-c2nnc(C(F)(F)F)o2)cn1)C(=O)N1CCN(C)CC1 [Compound 21633, 4-Methyl-N-(o-tolyl)-N-((5-(5-(trifluoromethyl)-1,3,4-oxadiazol-2-yl)pyridin-2-yl)methyl)piperazine-1-carboxamide]
10 | 55 | 183 | CC(C)N1CCN(C(=O)N(Cc2ccc(-c3nnc(C(F)(F)F)o3)cc2)c2ccccc2)CC1 [Compound 21347, 4-Isopropyl-N-phenyl-N-(4-(5-(trifluoromethyl)-1,3,4-oxadiazol-2-yl)benzyl)piperazine-1-carboxamide]
11 | 24 | 420 | O=C(NCc1ccccc1)N(Cc1ccc(-c2nnc(C(F)(F)F)o2)cc1)c1ccccc1 [Compound 21368, 3-Benzyl-1-phenyl-1-(4-(5-(trifluoromethyl)-1,3,4-oxadiazol-2-yl)benzyl)urea]
